# Counter-ions that a name gives are not always drawn. Like-named read-outs stand apart in the source and are kept apart here.
# Assays:
# [1] = system: spontaneous hypertensive rat; assay: antihypertensive activity, indirect tail cuff method; type: in vivo; conditions: 50 mg/kg p.o.; measured on third day
# Protocol: The compounds of this invention are also useful as antihypertensive agents due to their ability to depress blood pressure in mammals. Antihypertensive activity is measured in the spontaneous hypertensive rat by the indirect tail cuff method described in "Methods in Pharmacology", A. Schwartz, Ed., Vol. I, Appleton-Century Crofts, New York, N.Y., 1971, p. 135. In this procedure a group of five animals is treated orally for three days with the test compound in relation to a control group of the same number. The drop in blood pressure is measured on the third day following administration. The antihypertensive activities of representative compounds, expressed as a decrease in mean arterial blood pressure (in mm Hg), are given in Table 3 along with the activity of a standard compound.
# mice [2] = assay: phenyl-p-benzoquinone writhing assay (analgesic activity); type: in vivo, mice (male, Charles River, CD-1); conditions: for % Inhibition of writhing: screening dose of 20 mg/kg, s.c.; for ED50: Mus musculus, sc, footnote 1 of Table 1, read-out: Analgesic Activity, ED50 (calculated dose effecting 50% inhibition of writhing)
# Protocol: The procedure employed to determine analgetic utility is a modification of the phenyl-p-benzoquinone writhing assay in mice, a standard assay for analgesia [Proc. Soc. […] Pursuant to the modified procedure phenyl-p-benzoquinone (Eastman, 12.5 mg) is dissolved in 5 ml of 95% ethanol and the solution is diluted to a total volume of 100 ml with distilled water. The solution is administered to the subject mice intraperitoneally at a dose of 10 ml per kg of body weight. A characteristic "writhe" an inward rotation of one or more feet with twisting and turning of the trunk, drawing in of the abdominal wall, lordosis and arching of the back, is produced.
# A total of 28 male mice (Charles River, CD-1), weighing 18 to 30 grams, are employed for a time response. The subject animals receive food and water ad libitum. Test compounds are dissolved in distilled water, or suspended in distilled water containing one drop of a suitable surfactant, such as Tween-80.
# Four groups of five animals (20 animals) are given the test compound subcutaneously (s.c.) or orally (p.o.) at 15, 30, 45 and 60 minutes prior to administration of the phenyl-p-quinone. A control group (2 animals per group) receive an equal volume of the vehicle. After the administration of the phenyl-p-quinone, the mice are placed separately in one liter beakers, and after five minutes, are observed for ten minutes. The number of writhes for each animal is recorded. The following formula is used to compute the percent inhibition: [formula]
# The time period with the greatest percent of inhibition is considered the peak time.
# mice [3] = assay: metrazol lethality assay (MTZ), anticonvulsant activity; type: in vivo, mice (male, Charles River, CD-1)
# rats = assay: L-5-hydroxytryptophan (5-HTP) potentiation assay (antidepressant activity); type: in vivo, male Wistar rats
# Protocol: Antidepressant activity is determined by the L-5-hydroxytryptophan potentiation assay in rats described in Brit.
# In the L-5-hydroxytryptophan potentiation assay groups of six male Wistar rats (150-200 grams each) are used. Pargyline hydrochloride is prepared and administered four hours before testing by subcutaneous injection at 75 mg/kg in 1% saline and a dosage volume of 1.0 ml/kg. Thirty minutes before testing, drugs are prepared and dosed using distilled water and, if insoluble, a suitable surfactant is added. Control groups receive vehicle. Drugs are routinely administered intraperitoneally at a dosage volume of 10 ml/kg. L-5-hydroxytryptophan (5-HTP) is prepared at 1.0 mg/kg in distilled water and is administered intraperioneally in volumes proportional to 10 ml/kg.
# Potentiation is expressed as normalized percent potentiation relative to vehicle control. ED50 values (the calculated dose at which the test compound effects a 50% inhibition of continuous forelimb clonus) and 95% confidence limits are determined by linear analysis.
# mice [4] = assay: tetrabenazine (TBZ) induced ptosis assay (antidepressant activity); type: in vivo, mice (male, Charles River, CD-1)
# Protocol: In the tetrabenazine induced ptosis assay, male mice (Charles River, CD-1), weighing 20 to 39 g, are used in test groups of five animals. Test compounds are dissolved, or suspended with 1 drop of Tween-80, in distilled water and administered to the animals in volumes of 10 cc per kg of body weight. Tetrabenazine methanesulfonate (76.78% as the free base) is dissolved in distilled water and the concentration of the solution is adjusted so that the dose, administered intraperitoneally (i.p.) to the animals, is 40 mg of tetrabenazine base per kg of animal body weight.
# The test compound is administered intraperitoneally (i.p.) or perorally (p.o.) to the subject animals, and the tetrabenazine solution is administered 30 minutes or 60 minutes, respectively, thereafter. Tetrabenazine solution and the solvent used to dissolve or suspend the test compounds are administered by the same route and at the same intervals as the test compounds to a control group.
# The subject animals are placed in individual plastic containers (101/2"×8"×6") thirty (i.p.) and sixty minutes (p.o.) after administration of the tetrabenazine solution, and one minute thereafter, the animals are scored for ptosis on the following scale:
# The total score for each group of 5 animals will therefore vary from 0 to 20; these scores are used as the indications of the activity of the test compound.
# The vehicle-control group score is used as a determination of the validity of each test.
# For calculation of the ED50 value of a test compound; i.e., the calculated dose at which the test compound effects a 50% inhibition of tetrabenazine-induced ptosis, four or five doses are administered, and only vehicle-control scores of 17 to 20 are acceptable. A linear-regression analysis is used to estimate ED50 values and 95% confidence limits.
# [5] = Rattus norvegicus, ip; read-out: 5-HTP ED50
# [6] = Rattus norvegicus, ip, read-out: 5-HTP ED50
# [7] = Mus musculus, ip, read-out: TBZ ED50
# [8] = Mus musculus, ip; read-out: TBZ ED50
compound,measurement,setting,value
"Fc1c(F)c(F)c(OC2(c3ccccc3)CCN(Cc3ccccc3)CC2)c(F)c1F [1-Benzyl-4-(2,3,4,5,6-pentafluorophenoxy)-4-phenyl piperidine]",SHR mm dec. in blood pressure (decrease in mean arterial blood pressure),[1],40 mm Hg
"N#CN1CCC(Oc2c(F)c(F)c(F)c(F)c2F)(c2ccccc2)CC1 [1-Cyano-4-(2,3,4,5,6-pentafluorophenoxy)-4-phenyl piperidine]",% Inhibition of writhing,mice [2],52%
same,ED50,"mice [3]; Mus musculus, po",55.2 mg/kg
"Cl.Fc1ccc2c(CCCN3CCC(Oc4c(F)c(F)c(F)c(F)c4F)CC3)noc2c1 [1-[(6-Fluoro-1,2-benzisoxazol-3-yl)propyl]-4-(2,3,4,5,6-pentafluorophenoxy)piperidine hydrochloride]",SHR mm dec. in blood pressure (decrease in mean arterial blood pressure),[1],62 mm Hg
"CP(C)(=O)CN1CCC(Oc2c(F)c(F)c(F)c(F)c2F)CC1 [1-[(Dimethylphosphinyl)methyl]-4-(2,3,4,5,6-pentafluorophenoxy)piperdine]",ED50,rats; [5],9.1 mg/kg
"CN1CCC(Oc2c(F)c(F)c(F)c(F)c2F)(c2ccccc2)CC1.Cl [1-methyl-4-(2,3,4,5,6-pentafluorophenoxy)-4-phenylpiperidine hydrochloride]",ED50,rats; [6],8.1 mg/kg
same,ED50,mice [4]; [7],1.3 mg/kg
"CN1CCC(Oc2c(F)c(F)c(F)c(F)c2F)CC1 [1-methyl-4-(2,3,4,5,6-pentafluorophenoxy)piperidine]",ED50,rats; [5],4.7 mg/kg
same,ED50,mice [4]; [8],4.7 mg/kg
"COc1ccccc1N1CCN(CCCCN2CCC(Oc3c(F)c(F)c(F)c(F)c3F)CC2)CC1 [1-{4-[1-[4-(2-Methoxyphenyl)piperazin-1-yl]butyl]}-4-(2,3,4,5,6-pentafluorophenoxy)piperidine dioxalate]",ED50,mice [2],19 mg/kg
"Fc1c(F)c(F)c(OC2(c3ccccc3)CCNCC2)c(F)c1F.O=C(O)/C=C\C(=O)O [4-(2,3,4,5,6-Pentafluorophenoxy)-4-phenylpiperidine maleate]",ED50,rats; [5],14.5 mg/kg
same,ED50,mice [4]; [8],1 mg/kg
"Cl.Fc1c(F)c(F)c(OC2CCNCC2)c(F)c1F [4-(2,3,4,5,6-Pentafluorophenoxy)piperidine hydrochloride]",ED50,mice [2],20 mg/kg
"CN1CCC(Oc2c(F)c(F)c(F)c(F)c2F)(c2ccccc2F)CC1.O=C(O)C(=O)O [4-(2-Fluorophenyl)-1-methyl-4-(2,3,4,5,6-pentafluorophenoxy) piperidine oxalate]",ED50,mice [4]; [7],3.8 mg/kg
"Fc1ccccc1C1(Oc2c(F)c(F)c(F)c(F)c2F)CCNCC1.O=C(O)/C=C\C(=O)O [4-(2-Fluorophenyl)-4-(2,3,4,5,6-pentafluorophenoxy)piperidine maleate]",ED50,rats; [5],< 20 mg/kg
same,ED50,mice [4]; [8],6.4 mg/kg
"CN1CCC(Oc2c(F)c(F)c(F)c(F)c2F)(c2ccc(Cl)cc2)CC1.O=C(O)/C=C/C(=O)O [4-(4-Chlorophenyl)-1-methyl-4-(2,3,4,5,6-pentafluorophenoxy)p iperidine fumarate]",ED50,rats; [6],11.9 mg/kg
same,ED50,mice [4]; [7],38.9 mg/kg
"Fc1c(F)c(F)c(OC2(c3ccc(Cl)cc3)CCNCC2)c(F)c1F.O=C(O)/C=C/C(=O)O [4-(4-Chlorophenyl)-4-(2,3,4,5,6-pentafluorophenoxy)piperidine fumarate]",% Inhibition of writhing,mice [2],66%
same,ED50,rats; [5],37 mg/kg
same,ED50,mice [4]; [8],20 mg/kg
"CN1CCC(Oc2c(F)c(F)c(F)c(F)c2F)(c2ccc(F)cc2)CC1.Cl [4-(4-Fluorophenyl)-1-methyl-4-(2,3,4,5,6-pentafluorophenoxy)p iperidine hydrochloride]",% Inhibition of writhing,mice [2],49%
same,Percent inhibition of Metrazol lethality,"mice [3]; 30 mg/kg i.p., footnote 2 of Table 2",80%
same,ED50,rats; [6],7 mg/kg
same,ED50,mice [4]; [7],5.4 mg/kg
"Cl.Fc1ccc(C2(Oc3c(F)c(F)c(F)c(F)c3F)CCNCC2)cc1 [4-(4-Fluorophenyl)-4-(2,3,4,5,6-pentafluorophenoxy)piperidine hydrochloride]",% Inhibition of writhing,mice [2],58%
same,ED50,rats; [5],< 10 mg/kg
same,ED50,mice [4]; [8],4.8 mg/kg
"COc1ccc(C2(Oc3c(F)c(F)c(F)c(F)c3F)CCN(C)CC2)cc1.Cl [4-(4-Methoxyphenyl)-1-methyl-4-(2,3,4,5,6-pentafluorophenoxy) piperidine hydrochloride]",% Inhibition of writhing,mice [2],53%
"Cc1ccc(C2(Oc3c(F)c(F)c(F)c(F)c3F)CCNCC2)cc1.O=C(O)/C=C\C(=O)O [4-(4-Methylphenyl)-4-(2,3,4,5,6-pentafluorophenoxy)piperidine maleate]",% Inhibition of writhing,mice [2],56%
same,ED50,rats; [5],14.5 mg/kg
same,ED50,mice [4]; [8],8.3 mg/kg
"Cc1ccc(C2(Oc3c(F)c(F)c(F)c(F)c3F)CCN(C)CC2)cc1 [(4-(4-Methylphenyl)-1-methyl-4-(2,3,4,5,6-pentafluorophenoxy)piperidine hydrochloride]",ED50,mice [4]; [7],7 mg/kg
"CN(C)CCC=C1c2ccccc2CCc2ccccc21 [amitriptyline, reference compound]",ED50,rats; [5],7.1 mg/kg
same,ED50,mice [4]; [8],1.5 mg/kg
"N=C(N)NCCN1CCCCCCC1 [guanethidine, reference compound]",SHR mm dec. in blood pressure (decrease in mean arterial blood pressure),[1],20 mm Hg
